US20260262643A1, “HERBICIDAL BENZOXAZINES” (FMC CORPORATION, priority 2022, published 2026)

How the values were obtained:
wheat [1] = assay: Test C preemergence; format: in vivo, Triticum aestivum; settings: for Plant response rating, Wheat: Preemergence; for Wheat plant response rating: preemergence
How it was run: (§1)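 Visual injury ratings on a 0–100 scale (100 = complete control) were made against untreated controls 10 days after treatment in the greenhouse. Compounds, formulated with surfactant in non-phytotoxic solvent, were sprayed on soil preemergence or onto one- to two-leaf plants 2–10 cm tall postemergence.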

pigweed, palmer [2] = assay: Test C preemergence; format: in vivo, Amaranthus palmeri; settings: for Plant response rating, Pigweed, Palmer: Preemergence; for Pigweed, Palmer plant response rating: preemergence
How it was run: as §1

wheat [3] = assay: Test C postemergence; format: in vivo, Triticum aestivum; settings: 10 days
How it was run: as §1

green foxtail [4] = assay: Test C preemergence; format: in vivo, Setaria viridis; settings: for Plant response rating, Foxtail, Green: Preemergence; for Foxtail, Green plant response rating: preemergence
How it was run: as §1

kochia [5] = assay: Test C postemergence; format: in vivo, Bassia scoparia; settings: 10 days
How it was run: as §1

green foxtail [6] = assay: Test C postemergence; format: in vivo, Setaria viridis; settings: 10 days
How it was run: as §1

corn [7] = assay: Test C postemergence; format: in vivo, Zea mays; settings: 10 days
How it was run: as §1

ragweed [8] = assay: Test C postemergence; format: in vivo, Ambrosia artemisiifolia; settings: 10 days
How it was run: as §1

blackgrass [9] = assay: Test C preemergence; format: in vivo, Alopecurus myosuroides; settings: for Plant response rating, Blackgrass: Preemergence; for Blackgrass plant response rating: preemergence
How it was run: as §1

barnyardgrass [10] = assay: Test C preemergence; format: in vivo, Echinochloa crusgalli; settings: for Plant response rating, Barnyardgrass: Preemergence; for Barnyardgrass plant response rating: preemergence
How it was run: as §1

soybean [11] = assay: Test C preemergence; format: in vivo, Glycine max; settings: for Plant response rating, Soybean: Preemergence; for Soybean plant response rating: preemergence
How it was run: as §1

corn [12] = assay: Test C preemergence; format: in vivo, Zea mays; settings: for Plant response rating, Corn: Preemergence; for Corn plant response rating: preemergence
How it was run: as §1

pigweed, palmer [13] = assay: Test C postemergence; format: in vivo, Amaranthus palmeri; settings: 10 days
How it was run: as §1

barnyardgrass [14] = assay: Test D flooded paddy test; format: in vivo, Echinochloa crus-galli; settings: 250 g ai/ha, applied to paddy water, visual rating after 13 to 14 days, scale 0 to 100 (0 no effect, 100 complete control)
How it was run: (§2)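 Compounds go straight into paddy water over 2-leaf plants in pots flooded to 3 cm. Greenhouse holding lasts 13 to 14 days. Injury is scored by eye against controls from 0 (none) to 100 (complete control).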

ryegrass, Italian [15] = assay: Test C preemergence; format: in vivo, Lolium multiflorum; settings: for Plant response rating, Ryegrass, Italian: Preemergence; for Ryegrass, Italian plant response rating: preemergence
How it was run: as §1

ryegrass, Italian [16] = assay: Test C postemergence; format: in vivo, Lolium multiflorum; settings: 10 days
How it was run: as §1

blackgrass [17] = assay: Test C postemergence; format: in vivo, Alopecurus myosuroides; settings: 10 days
How it was run: as §1

oat, wild [18] = assay: Test C preemergence; format: in vivo, Avena fatua; settings: for Plant response rating, Oat, Wild: Preemergence; for Oat, Wild plant response rating: preemergence
How it was run: as §1

sedge, umbrella = assay: Test D flooded paddy test; format: in vivo, Cyperus difformis; settings: 250 g ai/ha, applied to paddy water, visual rating after 13 to 14 days, scale 0 to 100 (0 no effect, 100 complete control)
How it was run: as §2

kochia [19] = assay: Test C preemergence; format: in vivo, Bassia scoparia; settings: for Plant response rating, Kochia: Preemergence; for Kochia plant response rating: preemergence
How it was run: as §1

soybean [20] = assay: Test C postemergence; format: in vivo, Glycine max; settings: 10 days
How it was run: as §1

ragweed [21] = assay: Test C preemergence; format: in vivo, Ambrosia artemisiifolia; settings: for Plant response rating, Ragweed: Preemergence; for Ragweed plant response rating: preemergence
How it was run: as §1

horseweed = assay: Test C postemergence; format: in vivo, Erigeron canadensis; settings: 10 days
How it was run: as §1

galium = assay: Test C postemergence; format: in vivo, Galium aparine; settings: 10 days
How it was run: as §1

barnyardgrass [22] = assay: Test C postemergence; format: in vivo, Echinochloa crusgalli; settings: 10 days
How it was run: as §1

ducksalad = assay: Test D flooded paddy test; format: in vivo, Heteranthera limosa; settings: 250 g ai/ha, applied to paddy water, visual rating after 13 to 14 days, scale 0 to 100 (0 no effect, 100 complete control)
How it was run: as §2

rice = assay: Test D flooded paddy test; format: in vivo, Oryza sativa; settings: 250 g ai/ha, applied to paddy water, visual rating after 13 to 14 days, scale 0 to 100 (0 no effect, 100 complete control)
How it was run: as §2

oat, wild [23] = assay: Test C postemergence; format: in vivo, Avena fatua; settings: 10 days
How it was run: as §1

[24] = 500 g ai/ha, visual rating after 10 days, 0 to 100 scale (0 no effect, 100 complete control)
[25] = Test C, 125 g ai/ha, 0 to 100 scale (0 no effect, 100 complete control)
[26] = 125 g ai/ha, postemergence, 0 to 100 scale, 0 no effect, 100 complete control
[27] = Postemergence, 500 g ai/ha, visual 0 to 100 scale (0 no effect, 100 complete control)
[28] = 500 g ai/ha, 0 to 100 scale (0 no effect, 100 complete control)
[29] = 125 g ai/ha, 0 to 100 scale, 0 no effect, 100 complete control
[30] = 500 g ai/ha, postemergence, 0 to 100 scale (0 no effect, 100 complete control)
[31] = Postemergence, 125 g ai/ha, 0 to 100 scale (0 no effect, 100 complete control)

In the case of `Cc1ccc(-n2cnc(C3(C(F)(F)F)CC3)n2)cc1C(=O)N1C[C@H](C)Oc2c(Cl)cccc21` [Compound 175], the “Plant response rating, Wheat” value (wheat [1]; [24]) is reported as 20, the “Wheat plant response rating” value (wheat [1]; [25]) is reported as 20 and the “Plant response rating, Pigweed, Palmer” value (pigweed, palmer [2]; [24]) is reported as 100. For the same compound, the “Pigweed, Palmer plant response rating” value (pigweed, palmer [2]; [25]) was 100, the “Plant response rating, Wheat” value (wheat [3]; [26]) was 10 and the “Plant response rating, Wheat” value (wheat [3]; [27]) was 10. The “Plant response rating, Foxtail, Green” value (green foxtail [4]; [24]) was 100, the “Foxtail, Green plant response rating” value (green foxtail [4]; [25]) was 90 and the “Plant response rating, Kochia” value (kochia [5]; [26]) was 90. For the same compound, the “Plant response rating, Kochia” value (kochia [5]; [27]) was 100, the “Plant response rating, Foxtail, Green” value (green foxtail [6]; [26]) was 30 and the “Plant response rating, Foxtail, Green” value (green foxtail [6]; [27]) was 70. The “Plant response rating, Corn” value (corn [7]; [26]) was 0, the “Plant response rating, Corn” value (corn [7]; [27]) was 20 and the “Plant response rating, Ragweed” value (ragweed [8]; [26]) was 20. The “Plant response rating, Ragweed” value (ragweed [8]; [27]) was 70, the “Plant response rating, Blackgrass” value (blackgrass [9]; [24]) was 10 and the “Blackgrass plant response rating” value (blackgrass [9]; [25]) was 0. The “Plant response rating, Barnyardgrass” value (barnyardgrass [10]; [24]) was 100, the “Barnyardgrass plant response rating” value (barnyardgrass [10]; [25]) was 70 and the “Plant response rating, Soybean” value (soybean [11]; [24]) was 90. The “Soybean plant response rating” value (soybean [11]; [25]) was 60, the “Plant response rating, Corn” value (corn [12]; [24]) was 20 and the “Corn plant response rating” value (corn [12]; [25]) was 0. For the same compound, the “Plant response rating, Pigweed, Palmer” value (pigweed, palmer [13]; [26]) was 90, the “Plant response rating, Pigweed, Palmer” value (pigweed, palmer [13]; [27]) was 90 and the “Plant response rating, Barnyardgrass (Flood)” value (barnyardgrass [14]) was 0. For the same compound, the “Plant response rating, Ryegrass, Italian” value (ryegrass, Italian [15]; [24]) was 90, the “Ryegrass, Italian plant response rating” value (ryegrass, Italian [15]; [25]) was 80 and the “Plant response rating, Ryegrass, Italian” value (ryegrass, Italian [16]; [26]) was 50. For the same compound, the “Plant response rating, Ryegrass, Italian” value (ryegrass, Italian [16]; [27]) was 60, the “Plant response rating, Blackgrass” value (blackgrass [17]; [26]) was 10 and the “Plant response rating, Blackgrass” value (blackgrass [17]; [27]) was 50. The “Plant response rating, Oat, Wild” value (oat, wild [18]; [24]) was 50, the “Oat, Wild plant response rating” value (oat, wild [18]; [25]) was 20 and the “Plant response rating, Sedge, Umbrella (Flood)” value (sedge, umbrella) was 0. For the same compound, the “Plant response rating, Kochia” value (kochia [19]; [24]) was 100, the “Kochia plant response rating” value (kochia [19]; [25]) was 40 and the “Plant response rating, Soybean” value (soybean [20]; [26]) was 100. The “Plant response rating, Soybean” value (soybean [20]; [27]) was 100, the “Plant response rating, Ragweed” value (ragweed [21]; [24]) was 70 and the “Ragweed plant response rating” value (ragweed [21]; [25]) was 20. The “Plant response rating, Horseweed” value (horseweed; [26]) was 80, the “Plant response rating, Horseweed” value (horseweed; [27]) was 60 and the “Plant response rating, Galium” value (galium; [26]) was 90. The “Plant response rating, Galium” value (galium; [27]) was 90, the “Plant response rating, Barnyardgrass” value (barnyardgrass [22]; [26]) was 20 and the “Plant response rating, Barnyardgrass” value (barnyardgrass [22]; [27]) was 50. For the same compound, the “Plant response rating, Ducksalad (Flood)” value (ducksalad) was 0, the “Plant response rating, Rice (Flood)” value (rice) was 0 and the “Plant response rating, Oat, Wild” value (oat, wild [23]; [26]) was 10. The “Plant response rating, Oat, Wild” value (oat, wild [23]; [27]) was 20.

In the case of `Cc1ccc(-n2cnc(C#N)n2)cc1C(=O)N1C[C@H](C)Oc2c(Cl)cccc21` [Compound 363], the “Wheat plant response rating” value (wheat [1]; [28]) is reported as 0, the “Plant response rating, Wheat” value (wheat [1]; [29]) is reported as 0 and the “Pigweed, Palmer plant response rating” value (pigweed, palmer [2]; [28]) is reported as 100. For the same compound, the “Plant response rating, Pigweed, Palmer” value (pigweed, palmer [2]; [29]) was 80, the “Plant response rating, Wheat” value (wheat [3]; [30]) was 20 and the “Plant response rating, Wheat” value (wheat [3]; [31]) was 20. The “Foxtail, Green plant response rating” value (green foxtail [4]; [28]) was 100, the “Plant response rating, Foxtail, Green” value (green foxtail [4]; [29]) was 100 and the “Plant response rating, Kochia” value (kochia [5]; [30]) was 80. The “Plant response rating, Kochia” value (kochia [5]; [31]) was 40, the “Plant response rating, Foxtail, Green” value (green foxtail [6]; [30]) was 50 and the “Plant response rating, Foxtail, Green” value (green foxtail [6]; [31]) was 30. The “Plant response rating, Corn” value (corn [7]; [30]) was 10, the “Plant response rating, Corn” value (corn [7]; [31]) was 10 and the “Plant response rating, Ragweed” value (ragweed [8]; [30]) was 50. The “Plant response rating, Ragweed” value (ragweed [8]; [31]) was 0, the “Blackgrass plant response rating” value (blackgrass [9]; [28]) was 30 and the “Plant response rating, Blackgrass” value (blackgrass [9]; [29]) was 0. For the same compound, the “Barnyardgrass plant response rating” value (barnyardgrass [10]; [28]) was 60, the “Plant response rating, Barnyardgrass” value (barnyardgrass [10]; [29]) was 40 and the “Soybean plant response rating” value (soybean [11]; [28]) was 0. For the same compound, the “Plant response rating, Soybean” value (soybean [11]; [29]) was 20, the “Corn plant response rating” value (corn [12]; [28]) was 0 and the “Plant response rating, Corn” value (corn [12]; [29]) was 0. The “Plant response rating, Pigweed, Palmer” value (pigweed, palmer [13]; [30]) was 90, the “Plant response rating, Pigweed, Palmer” value (pigweed, palmer [13]; [31]) was 70 and the “Plant response rating, Barnyardgrass (Flood)” value (barnyardgrass [14]) was 0. The “Ryegrass, Italian plant response rating” value (ryegrass, Italian [15]; [28]) was 70, the “Plant response rating, Ryegrass, Italian” value (ryegrass, Italian [15]; [29]) was 30 and the “Plant response rating, Ryegrass, Italian” value (ryegrass, Italian [16]; [30]) was 50. The “Plant response rating, Ryegrass, Italian” value (ryegrass, Italian [16]; [31]) was 40, the “Plant response rating, Blackgrass” value (blackgrass [17]; [30]) was 60 and the “Plant response rating, Blackgrass” value (blackgrass [17]; [31]) was 30. The “Oat, Wild plant response rating” value (oat, wild [18]; [28]) was 0, the “Plant response rating, Oat, Wild” value (oat, wild [18]; [29]) was 0 and the “Plant response rating, Sedge, Umbrella (Flood)” value (sedge, umbrella) was 0. The “Kochia plant response rating” value (kochia [19]; [28]) was 0, the “Plant response rating, Kochia” value (kochia [19]; [29]) was 0 and the “Plant response rating, Soybean” value (soybean [20]; [30]) was 100. The “Plant response rating, Soybean” value (soybean [20]; [31]) was 100, the “Ragweed plant response rating” value (ragweed [21]; [28]) was 80 and the “Plant response rating, Ragweed” value (ragweed [21]; [29]) was 20. For the same compound, the “Plant response rating, Horseweed” value (horseweed; [30]) was 0, the “Plant response rating, Horseweed” value (horseweed; [31]) was 0 and the “Plant response rating, Galium” value (galium; [30]) was 100. The “Plant response rating, Galium” value (galium; [31]) was 100, the “Plant response rating, Barnyardgrass” value (barnyardgrass [22]; [30]) was 50 and the “Plant response rating, Barnyardgrass” value (barnyardgrass [22]; [31]) was 20. For the same compound, the “Plant response rating, Ducksalad (Flood)” value (ducksalad) was 0, the “Plant response rating, Rice (Flood)” value (rice) was 0 and the “Plant response rating, Oat, Wild” value (oat, wild [23]; [30]) was 20. The “Plant response rating, Oat, Wild” value (oat, wild [23]; [31]) was 0.
